Marks after values point to notes of the source that are not given here.
Key:
[1] = system: IRF3 signaling pathway (IRF-inducible ISG54 promotor) in THP1-Lucia ISG cells; assay: THP1-Lucia ISG reporter assay: induction of IRF3-dependent luciferase activity; type: cell-based; settings: Homo sapiens, PMA-differentiated cells, 18 h after stimulation, read-out: THP1 ISG: fold increase of IRF3-dependent luciferase activity over background; for fold induction at 10 µM: 10 μM compound
Outline: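 PMA-differentiated (100 ng/ml) reporter cells, parental and IRF3−/−, stimulated with compounds at 5–20 μM (mostly 10 μM). Secreted luciferase measured 18 h later. Scored as fold increase over untreated background in bands from "−" (<2.4-fold) to "+++++" (≥40-fold).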

[2] = system: THP1-Lucia ISG IRF3 −/− cells; assay: IRF3-deficient THP1-Lucia ISG IRF3 −/− reporter assay (counter-screen); type: cell-based; settings: Homo sapiens, 18 h after stimulation, read-out: THP1 ISG IRF3 −/−: fold increase of luciferase activity over background; for fold induction at 10 µM: 10 μM compound
Outline: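 PMA-differentiated (100 ng/ml) reporter cells carrying ISRE/ISG54 minimal promoter-driven secreted luciferase were stimulated with compounds at 5–20 μM (mostly 10 μM). Luciferase measured 18 h later and expressed as fold increase over untreated background, binned from "−" (<2.4-fold) to "+++++" (≥40-fold).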

[3] = system: CXCL10 secretion by CT26 cells; assay: RIG-I dependent CXCL10 secretion by CT26 colon carcinoma cells (ELISA); type: cell-based, murine; settings: 24 h
Outline: (§1)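 Murine CT26 colon carcinoma cells, and CRISPR-generated RIG-I knockout CT26 cells, were seeded at 1×10^4 cells/well and grown 24 h at 37 °C, 5% CO2, then treated with compounds at 5 to 20 μM. CXCL10 in supernatants was measured by ELISA 24 h after stimulation.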

[4] = system: RIG-I deficient CT26 RIG-1−/− cells; assay: CXCL10 secretion in RIG-I deficient CT26 RIG-1−/− cells (ELISA); type: cell-based, murine; settings: 24 h
Outline: as §1

In the case of `O=C(Nc1nc2ccc([N+](=O)[O-])cc2s1)c1cc2ccccc2cc1OCCN1CCOCC1` [Example 20, 3-[2-(morpholin-4-yl)ethoxy]-N-(6-nitro-1,3-benzothiazol-2-yl)naphthalene-2-carboxamide], the fold induction at 10 µM [1] is reported as 10 to 19, the fold induction at 10 µM [2] is reported as less than 2.4 and the “CXCL10 secretion by CT26 cells” value ([3]; 5 μM compound (**)) is reported as “+** (“+” indicates 100-199 pg/mL)”. For the same compound, the “CXCL10 secretion by CT26 RIG-I −/− cells” value ([4]; 5 μM compound (**)) was “−** (“−” indicates less than 100 pg/mL)”.

`O=C(Nc1nc2ccc(S(=O)(=O)N3CCC(O)C3)cc2s1)c1cc2ccccc2cc1OCCCCN1CCOCC1` (stereo not shown) [Example 57, N-{6-[(3-hydroxypyrrolidin-1-yl)sulfonyl]-1,3-benzothiazol-2-yl}-3-[4-(morpholin-4-yl)butoxy]naphthalene-2-carboxamide] was tested, and the fold induction at 10 µM [1] was 10 to 19, the fold induction at 10 µM [2] was less than 2.4 and the “CXCL10 secretion by CT26 cells” value ([3]; 10 μM compound) was “+++ (“+++” indicates 400-799 pg/mL)”. The “CXCL10 secretion by CT26 RIG-I −/− cells” value ([4]; 10 μM compound) was “− (“−” indicates less than 100 pg/mL)”.

For `O=C(Nc1nc2ccc(C(=O)Nc3c(Cl)cccc3Cl)cc2s1)c1ccc2ccccc2c1` [Example 13, N-(2,6-dichlorophenyl)-2-(naphthalene-2-amido)-1,3-benzothiazole-6-carboxaraide], the fold induction at 10 µM [1] was 20 to 39, the fold induction at 10 µM [2] was less than 2.4 and the “CXCL10 secretion by CT26 cells” value ([3]; 10 μM compound) was “+++++ (“+++++” indicates greater than or equal to 1600 pg/ml)”. The “CXCL10 secretion by CT26 RIG-I −/− cells” value ([4]; 10 μM compound) was “− (“−” indicates less than 100 pg/mL)”.

With `Cn1c(C(=O)Nc2nc3ccc(S(=O)(=O)N4CCC4)cc3s2)cc2ccccc21` [Example 51, N-[6-(azetidine-1-sulfonyl)-1,3-benzothiazol-2-yl]-1-methyl-1H-indole-2-carboxamide] the fold induction at 10 µM [1] was 2.4 to 4.9, the fold induction at 10 µM [2] was less than 2.4 and the “CXCL10 secretion by CT26 cells” value ([3]; 10 μM compound) was “+ (“+” indicates 100-199 pg/mL)”. For the same compound, the “CXCL10 secretion by CT26 RIG-I −/− cells” value ([4]; 10 μM compound) was “− (“−” indicates less than 100 pg/mL)”.

In the case of `O=C(Nc1nc2ccc(S(=O)(=O)N3CCC3)cc2s1)c1cc2ccsc2cc1OCCCCN1CCOCC1` [Example 63, N-[6-(azetidine-1-sulfonyl)-1,3-benzothiazol-2-yl]-6-[4-(morpholin-4-yl)butoxy]-1-benzothiophene-5-carboxamide], the fold induction at 10 µM [1] is reported as 2.4 to 4.9, the fold induction at 10 µM [2] is reported as less than 2.4 and the “CXCL10 secretion by CT26 cells” value ([3]; 10 μM compound) is reported as “+ (“+” indicates 100-199 pg/mL)”. For the same compound, the “CXCL10 secretion by CT26 RIG-I −/− cells” value ([4]; 10 μM compound) was “− (“−” indicates less than 100 pg/mL)”.

`O=C(Nc1nc2ccc(NC(=O)C3CCCCC3)cc2s1)c1cc2ccccc2cc1OCCN1CCOCC1` [Example 21, N-(6-cyclohexaneamido-1,3-benzothiazol-2-yl)-3-[2-(morpholin-4-yl)ethoxy]naphthalene-2-carboxamide] was tested, and the fold induction at 10 µM [1] was 5 to 9.9, the fold induction at 10 µM [2] was less than 2.4 and the “CXCL10 secretion by CT26 cells” value ([3]; 5 μM compound (**)) was “+** (“+” indicates 100-199 pg/mL)”. The “CXCL10 secretion by CT26 RIG-I −/− cells” value ([4]; 5 μM compound (**)) was “−** (“−” indicates less than 100 pg/mL)”.

In the case of `O=C(Nc1nc2ccc(S(=O)(=O)N3CCCC3)cc2s1)c1cc2c(cc1OCCN1CCOCC1)OCO2` [Example 40, 6-[2-(morpholin-4-yl)ethoxy]-N-[6-(pyrrolidine-1-sulfonyl)-1,3-benzothiazol-2-yl]-2H-1,3-benzodioxole-5-carboxamide], the fold induction at 20 µM ([1]; 20 μM compound (*)) is reported as 2.4 to 4.9, the fold induction at 20 µM ([2]; 20 μM compound (*)) is reported as less than 2.4 and the “CXCL10 secretion by CT26 cells” value ([3]; 5 μM compound (**)) is reported as “++** (“++” indicates 200-399 pg/mL)”. For the same compound, the “CXCL10 secretion by CT26 RIG-I −/− cells” value ([4]; 5 μM compound (**)) was “−** (“−” indicates less than 100 pg/mL)”.

With `O=C(Nc1nc2ccc(S(=O)(=O)N3CCC3)cc2s1)c1ccc(-c2ccccc2)cc1OCCCCN1CCOCC1` [Example 59] the fold induction at 10 µM [1] was 10 to 19, the fold induction at 10 µM [2] was less than 2.4 and the “CXCL10 secretion by CT26 cells” value ([3]; 10 μM compound) was “+++ (“+++” indicates 400-799 pg/mL)”. The “CXCL10 secretion by CT26 RIG-I −/− cells” value ([4]; 10 μM compound) was “− (“−” indicates less than 100 pg/mL)”.

`O=C(Nc1cc2ccc(S(=O)(=O)N3CCCC3)cc2s1)c1cc2ccsc2cc1OCCCCN1CCOCC1` [Example 72, 6-[4-(morpholin-4-yl)butoxy]-N-[6-(pyrrolidine-1-sulfonyl)-1-benzothiophen-2-yl]-1-benzothiophene-5-carboxamide] was tested, and the fold induction at 10 µM [1] was 20 to 39, the fold induction at 10 µM [2] was less than 2.4 and the “CXCL10 secretion by CT26 cells” value ([3]; 10 μM compound) was “++++ (“++++” indicates 800 to 1599 pg/mL)”. The “CXCL10 secretion by CT26 RIG-I −/− cells” value ([4]; 10 μM compound) was “− (“−” indicates less than 100 pg/mL)”.

With `O=C(Nc1nc2cccc(C(F)(F)F)c2s1)c1ccc2ccccc2c1` [Example 11, N-[7-(trifluoromethyl)-1,3-benzothiazol-2-yl]naphthalene-2-carboxamide] the fold induction at 10 µM [1] was 10 to 19, the fold induction at 10 µM [2] was less than 2.4 and the “CXCL10 secretion by CT26 cells” value ([3]; 10 μM compound) was “++ (“++” indicates 200-399 pg/mL)”. The “CXCL10 secretion by CT26 RIG-I −/− cells” value ([4]; 10 μM compound) was “− (“−” indicates less than 100 pg/mL)”.

With `O=C(Nc1nc2ccc(NC(=O)C3CCCCC3)cc2s1)c1ccc2ccccc2c1` [Example 8, N-(6-cyclohexaneamido-1,3-benzothiazol-2-yl)naphthalene-2-carboxamide] the fold induction at 10 µM [1] was 10 to 19, the fold induction at 10 µM [2] was less than 2.4 and the “CXCL10 secretion by CT26 cells” value ([3]; 10 μM compound) was “++++ (“++++” indicates 800 to 1599 pg/mL)”. For the same compound, the “CXCL10 secretion by CT26 RIG-I −/− cells” value ([4]; 10 μM compound) was “− (“−” indicates less than 100 pg/mL)”.

With `O=C(Nc1cc2ccc(S(=O)(=O)N3CCCC3)cc2s1)c1ccc(-c2ccccc2)cc1OCCCCN1CCOCC1` [Example 68, 3-[4-(morpholin-4-yl)butoxy]-N-[6-(pyrrolidine-1-sulfonyl)-1-benzothiophen-2-yl]-[1,1′-biphenyl]-4-carboxamide] the fold induction at 10 µM [1] was 20 to 39, the fold induction at 10 µM [2] was less than 2.4 and the “CXCL10 secretion by CT26 cells” value ([3]; 10 μM compound) was “++++ (“++++” indicates 800 to 1599 pg/mL)”. For the same compound, the “CXCL10 secretion by CT26 RIG-I −/− cells” value ([4]; 10 μM compound) was “− (“−” indicates less than 100 pg/mL)”.

For `O=C(Nc1cc2ccc(S(=O)(=O)N3CCCC3)cc2s1)c1cc2ccccc2cc1OCCN1CCOCC1` [Example 74, 3-[2-(morpholin-4-yl)ethoxy]-N-[6-(pyrrolidine-1-sulfonyl)-1-benzothiophen-2-yl]naphthalene-2-carboxamide], the fold induction at 10 µM [1] was 10 to 19, the fold induction at 10 µM [2] was less than 2.4 and the “CXCL10 secretion by CT26 cells” value ([3]; 10 μM compound) was “+++ (“+++” indicates 400-799 pg/mL)”. For the same compound, the “CXCL10 secretion by CT26 RIG-I −/− cells” value ([4]; 10 μM compound) was “− (“−” indicates less than 100 pg/mL)”.

`O=C(Nc1nc2ccc(S(=O)(=O)N3CCC3)cc2s1)c1cc2c(cc1OCCCCN1CCOCC1)OCO2` [Example 64, N-[6-(azetidine-1-sulfonyl)-1,3-benzothiazol-2-yl]-6-[4-(morpholin-4-yl)butoxy]-2H-1,3-benzodioxole-5-carboxamide] was tested, and the fold induction at 10 µM [1] was 10 to 19, the fold induction at 10 µM [2] was less than 2.4 and the “CXCL10 secretion by CT26 cells” value ([3]; 10 μM compound) was “+++ (“+++” indicates 400-799 pg/mL)”. The “CXCL10 secretion by CT26 RIG-I −/− cells” value ([4]; 10 μM compound) was “− (“−” indicates less than 100 pg/mL)”.

For `O=C(Nc1nc2ccc(SC(F)(F)F)cc2s1)c1ccc2ccccc2c1` [Example 9, N-{6-[(trifluoromethyl)sulfanyl]-1,3-benzothiazol-2-yl}naphthalene-2-carboxamide], the fold induction at 10 µM [1] was 5 to 9.9, the fold induction at 10 µM [2] was less than 2.4 and the “CXCL10 secretion by CT26 cells” value ([3]; 10 μM compound) was “+++ (“+++” indicates 400-799 pg/mL)”. The “CXCL10 secretion by CT26 RIG-I −/− cells” value ([4]; 10 μM compound) was “− (“−” indicates less than 100 pg/mL)”.

`O=C(Nc1nc2ccc(S(=O)(=O)N3CCCCC3)cc2s1)c1cc2ccccc2cc1OCCN1CCOCC1` [Example 37, 3-[2-(morpholin-4-yl)ethoxy]-N-[6-(piperidine-1-sulfonyl)-1,3-benzothiazol-2-yl]naphthalene-2-carboxamide] was tested, and the fold induction at 10 µM [1] was 10 to 19, the fold induction at 10 µM [2] was less than 2.4 and the “CXCL10 secretion by CT26 cells” value ([3]; 10 μM compound) was “+++ (“+++” indicates 400-799 pg/mL)”. The “CXCL10 secretion by CT26 RIG-I −/− cells” value ([4]; 10 μM compound) was “− (“−” indicates less than 100 pg/mL)”.
